Patent publication US20230391826A1, “COMPOSITIONS AND METHODS FOR TREATING DISEASES” (Sanford Burnham Prebys Medical Discovery Institute, priority 2020, published 2023)

Assays:
EphA2 LBD = target: T1, EphA2 LBD (Homo sapiens, UniProt P29317); details: previous studies, cited from earlier work
T1 construct: made in house; host or cells: E. coli Origami 2(DE3)

EphA2 = EphA2 (Homo sapiens, UniProt P29317); assay: EphA2 activation (Y588 phosphorylation) in cells by monomeric YSA derivatives; assay type: cell-based; set-up: EphA2 is the prevalent endogenously expressed EphA receptor in these cells; endogenous in cells; host or cells: PC3 prostate cancer cells
Sequence of EphA2 (P29317 24-976): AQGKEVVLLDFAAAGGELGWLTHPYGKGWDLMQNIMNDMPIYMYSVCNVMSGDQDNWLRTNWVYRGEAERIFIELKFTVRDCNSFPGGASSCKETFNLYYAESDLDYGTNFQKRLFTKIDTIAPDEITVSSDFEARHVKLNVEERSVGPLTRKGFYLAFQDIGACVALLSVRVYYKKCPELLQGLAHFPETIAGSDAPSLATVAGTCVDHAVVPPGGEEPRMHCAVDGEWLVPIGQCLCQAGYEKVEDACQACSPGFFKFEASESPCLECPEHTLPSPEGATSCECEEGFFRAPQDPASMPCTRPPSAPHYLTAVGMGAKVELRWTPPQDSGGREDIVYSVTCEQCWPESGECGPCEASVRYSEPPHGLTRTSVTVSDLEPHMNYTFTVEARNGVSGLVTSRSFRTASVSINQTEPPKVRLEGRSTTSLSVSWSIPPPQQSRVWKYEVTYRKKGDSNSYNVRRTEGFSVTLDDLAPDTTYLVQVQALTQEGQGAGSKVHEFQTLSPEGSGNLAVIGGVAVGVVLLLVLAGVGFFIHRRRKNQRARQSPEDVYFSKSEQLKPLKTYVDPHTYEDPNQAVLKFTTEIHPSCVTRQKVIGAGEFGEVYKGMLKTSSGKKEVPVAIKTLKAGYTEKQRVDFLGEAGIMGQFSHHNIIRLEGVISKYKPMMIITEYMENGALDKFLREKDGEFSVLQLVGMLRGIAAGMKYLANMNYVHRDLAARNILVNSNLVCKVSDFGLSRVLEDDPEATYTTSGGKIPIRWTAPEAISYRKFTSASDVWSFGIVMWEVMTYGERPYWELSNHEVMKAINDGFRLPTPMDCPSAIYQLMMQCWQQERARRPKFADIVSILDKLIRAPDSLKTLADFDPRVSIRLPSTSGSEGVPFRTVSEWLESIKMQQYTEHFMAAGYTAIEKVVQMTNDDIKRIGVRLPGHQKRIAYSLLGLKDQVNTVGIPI
From the text: However, as expected given their much higher potency, these two peptides are active at nanomolar concentrations. The C-terminal biotin promotes the agonistic activity of YSA derivative peptides. […] This is confirmed with the crystal structures. Thus, peptides with 1 to 7 residues between Prol 0, which is conserved in all YSA derivatives of Table 2, and the Lys-biotin residue, can all efficiently activate EphA2. […] Non-amidated β[…] has the ability to activate EphA2 in cells, even though the concentrations needed are about 10-fold higher than for the biotinylated peptide and the maximal […] phosphorylation induced by saturating peptide concentrations is about 40% lower. The C-terminally amidated version of the peptide loses the ability to activate EphA2, consistent with a role of the C-terminal negative charge for EphA2 activation even in the absence of biotin.

T1 sequence (P29317 28-200): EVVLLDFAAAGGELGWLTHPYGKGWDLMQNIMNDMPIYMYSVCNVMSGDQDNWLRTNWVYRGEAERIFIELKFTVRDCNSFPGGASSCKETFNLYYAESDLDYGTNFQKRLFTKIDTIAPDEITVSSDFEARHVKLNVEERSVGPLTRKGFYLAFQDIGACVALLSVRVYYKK

CC(C)C[C@H](NC(=O)[C@H](Cc1c[nH]c2ccccc12)NC(=O)CCN)C(=O)N[C@@H](C)C(=O)N[C@@H](Cc1ccc(O)cc1)C(=O)N1CCC[C@H]1C(=O)N[C@@H](CC(=O)O)C(=O)N[C@@H](CO)C(=O)N[C@H](C(=O)N1CCC[C@H]1C(=O)N[C@@H](Cc1ccc(O)cc1)C(=O)N[C@@H](CCCNC(=N)N)C(=O)N1CCC[C@H]1C(=O)N[C@@H](CCCCN)C(=O)O)C(C)C [βA-WLA-YRPK]
improvement of binding affinity compared to monomeric YSA-GSGSK-bio (EphA2 LBD): 50 fold | Kd (EphA2 LBD; read-out: binding affinity for the EphA2 LBD measured by ITC): ~200 nM | maximal Y588 phosphorylation at saturating peptide concentrations, lower than the biotinylated peptide (EphA2): about 40% | concentrations needed to activate EphA2 in cells relative to the biotinylated peptide (EphA2; higher than for βA-WLA-YRPK-bio): about 10 fold
